Data reported in patent US20170334899A1, “AMINO-SUBSTITUTED ISOTHIAZOLES” (Bayer Pharma Aktiengesellschaft, priority 2014, published 2017).

Assays:
[1] = tested on: human cervical tumor cell line HeLa (ATCC CCL-2); assay: SAC-Formation - Paclitaxel-Induced Assay; format: cell-based; conditions: Homo sapiens, HeLa, 24 h, HeLa cells, paclitaxel 0.05 μM, test range 0.005 μM-20 μM, read-out: IC50 [mol/l] SAC-Formation - Paclitaxel-Induced Assay
Method in brief: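 HeLa cells incubated overnight at 37° C, then given paclitaxel (0.05 μM final) plus test compound (0.005–20 μM, 0.5% DMSO) together for 24 h at 37° C. Fixed cells stained for phospho-histone H3 Ser10 (mitotic cells) and Hoechst 33342 (cell count); imaging-derived mitotic index fitted by four-parameter Hill equation.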

[2] = target: T1, CDK2/CycE (Homo sapiens, UniProt P24941); assay: CDK2/CycE kinase assay (TR-FRET); format: biochemical; conditions: avg, read-out: CDK2 avg (IC50 [mol/l])
T1 construct: GST; purchased ProQinase GmbH (Freiburg, Germany); host or cells: insect cells (Sf9)
Excerpt: CDK2/CycE -inhibitory activity of compounds of the present invention was quantified employing the CDK2/CycE TR-FRET assay as described in the following paragraphs.
Recombinant fusion proteins of GST and human CDK2 and of GST and human CycE, expressed in insect cells (Sf9) and purified by Glutathion-Sepharose affinity chromatography, were purchased from ProQinase GmbH (Freiburg, Germany). As substrate for the kinase reaction biotinylated peptide biotin-Ttds-YISPLKSPYKISEG (C-terminus in amid form) was used which can be purchased e.g. form the company JERINI peptide technologies (Berlin, Germany).
For the assay 50 nl of a 100fold concentrated solution of the test compound in DMSO was pipetted into a black low volume 384we11 microtiter plate (Greiner Bio-One, Frickenhausen, Germany), 2 μl of a solution of CDK2/CycE in aqueous assay buffer [50 mM Tris/HCl pH 8.0, 10 mM MgCl2, 1.0 mM dithiothreitol, 0.1 mM sodium ortho-vanadate, 0.01% (v/v) Nonidet-P40 (Sigma)] were added and the mixture was incubated for 15 min at 22° C. to allow pre-binding of the test compounds to the enzyme before the start of the kinase reaction. Then the kinase reaction was started by the addition of 3 μl of a solution of adenosine-tri-phosphate (ATP, 16.7 μM=>final conc. in the 5 μl assay volume is 10 μM) and substrate (1.25 μM=>final conc. in the 5 μl assay volume is 0.75 μM) in assay buffer and the resulting mixture was incubated for a reaction time of 25 min at 22° C. The concentration of CDK2/CycE was adjusted depending of the activity of the enzyme lot and was chosen appropriate to have the assay in the linear range, typical concentrations were in the range of 130 ng/ml. The reaction was stopped by the addition of 5 μl of a solution of TR-FRET detection reagents (0.2 μM streptavidine-XL665 [Cisbio Bioassays, Codolet, France] and 1 nM anti-RB(pSer807/pSer811)-antibody from BD Pharmingen [#558389] and 1.2 nM LANCE EU-W1024 labeled anti-mouse IgG antibody [Perkin-Elmer, product no. AD0077, as an alternative a Terbium-cryptate-labeled anti-mouse IgG antibody from Cisbio Bioassays can be used]) in an aqueous EDTA-solution (100 mM EDTA, 0.2% (w/v) bovine serum albumin in 100 mM HEPES/NaOH pH 7.0).
The resulting mixture was incubated 1 h at 22° C. to allow the formation of complex between the phosphorylated biotinylated peptide and the detection reagents. Subsequently the amount of phosphorylated substrate was evaluated by measurement of the resonance energy transfer from the Eu-chelate to the streptavidine-XL. Therefore, the fluorescence emissions at 620 nm and 665 nm after excitation at 350 nm was measured in a TR-FRET reader, e.g. a Rubystar (BMG Labtechnologies, Offenburg, Germany) or a Viewlux (Perkin-Elmer). The ratio of the emissions at 665 nm and at […] was taken as the measure for the amount of phosphorylated substrate. The data were normalised (enzyme reaction without inhibitor=0% inhibition, all other assay components but no enzyme=100% inhibition).

Structure (SMILES) | IC50 [1] | IC50 [2]
Cc1nsc(Nc2cnc(C(F)(F)F)cn2)c1C(=O)Nc1ccc(OC[C@@H]2CCN(CCC(F)(F)F)C2)nc1 [Example 129, 3-Methyl-5-{[5-(trifluoromethyl)pyrazin-2-yl]amino}-N-(6-{[(3R)-1-(3,3,3-trifluoropropyl)pyrrolidin-3-yl]methoxy}pyridin-3-yl)-1,2-thiazole-4-carboxamide] | 84 nM | > 20000 nM
Cc1nsc(Nc2cnc(C(F)(F)F)cn2)c1C(=O)Nc1ccc(O[C@@H]2CCN(CC(F)(F)F)C[C@@H]2F)nc1 [Example 138, N-(6-{[(3S,4R)-3-fluoro-1-(2,2,2-trifluoroethyl)piperidin-4-yl]oxy}pyridin-3-yl)-3-methyl-5-{[5-(trifluoromethyl)pyrazin-2-yl]amino}-1,2-thiazole-4-carboxamide] | 170 nM | > 20000 nM
Cc1nsc(Nc2cnc(C(F)(F)F)cn2)c1C(=O)Nc1ccc(O[C@@H]2CCN(CCC(F)(F)F)C[C@@H]2F)nc1 [Example 139, N-(6-{[(3S,4R)-3-fluoro-1-(3,3,3-trifluoropropyl)piperidin-4-yl]oxy}pyridin-3-yl)-3-methyl-5-{[5-(trifluoromethyl)pyrazin-2-yl]amino}-1,2-thiazole-4-carboxamide] | 89 nM | > 20000 nM
CCCCN1CC[C@@H](Oc2ccc(NC(=O)c3c(C)nsc3Nc3cnc(C(F)(F)F)cn3)cn2)[C@@H](F)C1 [Example 141, N-(6-{[(3S,4R)-1-butyl-3-fluoropiperidin-4-yl]oxy}pyridin-3-yl)-3-methyl-5-{[5-(trifluoromethyl)pyrazin-2-yl]amino}-1,2-thiazole-4-carboxamide] | 120 nM | > 20000 nM
Cc1nsc(Nc2cnc(C(F)(F)F)cn2)c1C(=O)Nc1ccc(O[C@H]2CCN(CCC(F)(F)F)C[C@H]2F)nc1 [Example 146, N-(6-{[(3R,4S)-3-fluoro-1-(3,3,3-trifluoropropyl)piperidin-4-yl]oxy}pyridin-3-yl)-3-methyl-5-{[5-(trifluoromethyl)pyrazin-2-yl]amino}-1,2-thiazole-4-carboxamide] | 110 nM | > 20000 nM
CCCN1CC[C@H](Oc2ccc(NC(=O)c3c(C)nsc3Nc3cnc(C(F)(F)F)cn3)cn2)[C@H](F)C1 [Example 147, N-(6-{[(3R,4S)-3-fluoro-1-propylpiperidin-4-yl]oxy}pyridin-3-yl)-3-methyl-5-{[5-(trifluoromethyl)pyrazin-2-yl]amino}-1,2-thiazole-4-carboxamide] | 30 nM | > 20000 nM
Cc1nsc(Nc2cnc3cc(F)ccc3n2)c1C(=O)Nc1ccc(S(N)(=O)=O)cc1 [Example 149, 5-[(6-fluoroquinoxalin-2-yl)amino]-3-methyl-N-(4-sulfamoylphenyl)-1,2-thiazole-4-carboxamide] | 1600 nM | > 20000 nM
Cc1nsc(Nc2ccc(C#N)cn2)c1C(=O)Nc1cccc(S(C)(=O)=O)c1 [Example 150, 5-[(5-cyanopyridin-2-yl)amino]-3-methyl-N-[3-(methylsulfonyl)phenyl]-1,2-thiazole-4-carboxamide] | 250 nM | > 20000 nM
Cc1nsc(Nc2cncc(C(F)(F)F)n2)c1C(=O)Nc1ccc(C(=O)NCCN2CCCC(F)C2)cc1 (centres unmarked) [Example 155, N-(4-{[2-(3-fluoropiperidin-1-yl)ethyl]carbamoyl}phenyl)-3-methyl-5-{[6-(trifluoromethyl)pyrazin-2-yl]amino}-1,2-thiazole-4-carboxamide] | 20000 nM | 4100 nM

More lines, in order of falling IC50 [1], values ahead:

IC50 [1] | IC50 [2] | Structure (SMILES)
8800 nM | > 20000 nM | CC(=O)Nc1cc(NC(=O)c2c(C)nsc2Nc2ccc(C#N)cn2)ccc1F [Example 152, N-(3-acetamido-4-fluorophenyl)-5-[(5-cyanopyridin-2-yl)amino]-3-methyl-1,2-thiazole-4-carboxamide]
4000 nM | > 20000 nM | Cc1nsc(Nc2cnc3ccccc3n2)c1C(=O)Nc1ccc(C(=O)NCCN2CCCC(F)(F)C2)cc1 [Example 156, N-(4-{[2-(3,3-difluoropiperidin-1-yl)ethyl]carbamoyl}phenyl)-3-methyl-5-(quinoxalin-2-ylamino)-1,2-thiazole-4-carboxamide]
1300 nM | > 20000 nM | Cc1nsc(Nc2cnc(C(F)(F)F)cn2)c1C(=O)Nc1ccc(F)c(C(N)=O)c1 [Example 151, N-(3-carbamoyl-4-fluorophenyl)-3-methyl-5-{[5-(trifluoromethyl)pyrazin-2-yl]amino}-1,2-thiazole-4-carboxamide]
1200 nM | > 20000 nM | Cc1nsc(Nc2cnc(C(F)(F)F)cn2)c1C(=O)Nc1ccc(C(=O)N2CCN(CC(F)F)CC2)cc1 [Example 154, N-(4-{[4-(2,2-difluoroethyl)piperazin-1-yl]carbonyl}phenyl)-3-methyl-5-{[5-(trifluoromethyl)pyrazin-2-yl]amino}-1,2-thiazole-4-carboxamide]
370 nM | > 20000 nM | Cc1nsc(Nc2cnc(C(F)(F)F)cn2)c1C(=O)Nc1ccc(C(=O)NCCN2CCCC(F)(F)C2)cc1 [Example 153, N-(4-{[2-(3,3-difluoropiperidin-1-yl)ethyl]carbamoyl}phenyl)-3-methyl-5-{[5-(trifluoromethyl)pyrazin-2-yl]amino}-1,2-thiazole-4-carboxamide]
310 nM | > 20000 nM | CCCCN1CC[C@H](Oc2ccc(NC(=O)c3c(C)nsc3Nc3cnc(C(F)(F)F)cn3)cn2)[C@H](F)C1 [Example 148, N-(6-{[(3R,4S)-1-butyl-3-fluoropiperidin-4-yl]oxy}pyridin-3-yl)-3-methyl-5-{[5-(trifluoromethyl)pyrazin-2-yl]amino}-1,2-thiazole-4-carboxamide]
110 nM | > 20000 nM | CCCN1CC[C@@H](Oc2ccc(NC(=O)c3c(C)nsc3Nc3cnc(C(F)(F)F)cn3)cn2)[C@@H](F)C1 [Example 140, N-(6-{[(3S,4R)-3-fluoro-1-propylpiperidin-4-yl]oxy}pyridin-3-yl)-3-methyl-5-{[5-(trifluoromethyl)pyrazin-2-yl]amino}-1,2-thiazole-4-carboxamide]
94 nM | > 20000 nM | Cc1nsc(Nc2cnc(C(F)(F)F)cn2)c1C(=O)Nc1ccc(O[C@H]2CCN(CC(F)F)C[C@H]2F)nc1 [Example 144, N-(6-{[(3R,4S)-1-(2,2-difluoroethyl)-3-fluoropiperidin-4-yl]oxy}pyridin-3-yl)-3-methyl-5-{[5-(trifluoromethyl)pyrazin-2-yl]amino}-1,2-thiazole-4-carboxamide]
37 nM | > 20000 nM | Cc1nsc(Nc2cnc(C(F)(F)F)cn2)c1C(=O)Nc1ccc(O[C@H]2CCN(CC(F)(F)F)C[C@H]2F)nc1 [Example 145, N-(6-{[(3R,4S)-3-fluoro-1-(2,2,2-trifluoroethyl)piperidin-4-yl]oxy}pyridin-3-yl)-3-methyl-5-{[5-(trifluoromethyl)pyrazin-2-yl]amino}-1,2-thiazole-4-carboxamide]
32 nM | > 20000 nM | Cc1nsc(Nc2cnc(C(F)(F)F)cn2)c1C(=O)Nc1ccc(O[C@@H]2CCN(CC(F)F)C[C@@H]2F)nc1 [Example 137, N-(6-{[(3S,4R)-1-(2,2-difluoroethyl)-3-fluoropiperidin-4-yl]oxy}pyridin-3-yl)-3-methyl-5-{[5-(trifluoromethyl)pyrazin-2-yl]amino}-1,2-thiazole-4-carboxamide]
